Source: article PMC4113814, “Bioactive Cembrane Derivatives from the Indian Ocean Soft Coral, Sinularia kavarattiensis” (Marine Drugs, 2014)
“Also recorded” adds a separate entry of the source. Read-outs that look alike come from different tables or passages of the source.

Key:
[1] = test system: CHIKV replicon; conditions: summary statement
[2] = test system: BHK-CHIKV-NCT cells; assay: Cytotoxicity assay by ATP quantitation (CellTiter GLO); conditions: 100 μM, cell concentration lowered to 3000 cells/well
[3] = test system: primary microglial cells; assay: Microglial morphology cell count (ramified vs amoeboid) in LPS-treated cultures; format: cell-based, Wistar rats; conditions: 2.5 μg/mL (7.2 μM) and 5.0 μg/mL (14.4 μM), 72 h
Procedure: Primary microglial cell cultures were prepared from brains of newborn Wistar rats. Ethics approval for the experiments was granted by the EBIOTEC Review Board (Valter Lombardi, Iván Carrera and Lucía Fernández-Novoa; Project Identification Code: Sinularia Project October 2013; approved 30 October 2013). The neocortex of one-day-old postnatal rats was aseptically dissected out, and the meninges and blood vessels were carefully removed. Following cutting in a medium containing 20% horse serum, the suspension was filtered through a […] and transferred as a single cell suspension to culture dishes, using 5.0 mL of medium per dish. The cultures were incubated at 37 °C in an atmosphere containing 5% CO2. The culture medium consisted of Minimum Essential Medium Eagle, supplemented with L-glutamine, amino acids, vitamins, penicillin, gentamicin, sodium bicarbonate and 20% heat-inactivated horse serum. The medium was changed twice a week. After 1 week, the concentration of horse serum was reduced to 10%. After sixteen days in culture, cells were treated with 1 μg/mL of lipopolysaccharide (LPS). […] After 72 h of incubation, cells were counted, and 2.5 mL of the supernatants were collected from each well and frozen at −40 °C for cytokine analyses. […]

[4] = test system: cytokine release; assay: Inhibition of cytokine release in primary microglial cells, whole cytokine panel (summary statements); format: cell-based, Wistar rats; conditions: Rattus norvegicus
Procedure: Primary microglial cell cultures were prepared from brains of newborn Wistar rats. Ethics approval for the experiments was granted by the EBIOTEC Review Board (Valter Lombardi, Iván Carrera and Lucía Fernández-Novoa; Project Identification Code: Sinularia Project October 2013; approved 30 October 2013). The neocortex of one-day-old postnatal rats was aseptically dissected out, and the meninges and blood vessels were carefully removed. Following cutting in a medium containing 20% horse serum, the suspension was filtered through a […] and transferred as a single cell suspension to culture dishes, using 5.0 mL of medium per dish. […] After 72 h of incubation, cells were counted, and 2.5 mL of the supernatants were collected from each well and frozen at −40 °C for cytokine analyses. […]
The supernatants obtained from cell cultures were analyzed for TNF-α, IL-1β, IL-4, IL-6, IL-8, IL-10 and IL-18 using commercially available ELISA kits following the manufacturers’ instructions. […] The cytokine concentration was calculated from a standard curve of the corresponding recombinant cytokine.
The cytotoxicity of the compounds was measured by the colorimetric methyl thiazol tetrazolium (MTT) assay and scored as a percentage of the absorbance reduction of treated cultures versus untreated control cultures. […] The solutions were shaken for 20 min, and the absorbance was measured at 570 nm. […]

| Compound | overall activity in the CHIKV replicon model [1] | reduction of ATP level [2] [%] | effect on ramified (RM) and amoeboid (AM) microglial cell density [3] | IC50 ([4]; converted from μg/mL, range over all cytokines) [µM] | IC50 ([4]; range over IL-1β, IL-6, IL-8, IL-18, TNF-α, IL-4, IL-10, read-out: IC50-values for the inhibition of cytokine release, range over cytokines) [µg/mL] |
| --- | --- | --- | --- | --- | --- |
| C=C(C)[C@@H]1C/C=C2\C(=O)O[C@@H](C[C@]3(C)CC(=O)[C@H](CC(=O)C1)O3)[C@@H]2O [Compound 1, 5-epi-sinuleptolide] | moderate inhibition | 39 | – | – | – |
| C=C(C)[C@@H]1C/C=C2\C(=O)O[C@@H](C[C@]3(C)CC(=O)[C@@H](CC(=O)C1)O3)[C@@H]2O [Compound 2, sinuleptolide] | moderate inhibition | 44 | significant RM and AM mean differences; also recorded: significantly reduce the number of activated amoeboid cells | 1.4 to 8.3 | 0.5 to 2.9 |
